ChEMBL document CHEMBL5316299, “Discovery of Novel Drug-like PHGDH Inhibitors to Disrupt Serine Biosynthesis for Cancer Therapy” (J Med Chem, 2023)

Key:
[1] = biological target: T1, D-3-phosphoglycerate dehydrogenase (Homo sapiens, UniProt O43175); test: Inhibition of PHGDH (unknown origin) preincubated for 30 mins followed by substrate addition and measured after 5 mins
T1 sequence (O43175 whole entry): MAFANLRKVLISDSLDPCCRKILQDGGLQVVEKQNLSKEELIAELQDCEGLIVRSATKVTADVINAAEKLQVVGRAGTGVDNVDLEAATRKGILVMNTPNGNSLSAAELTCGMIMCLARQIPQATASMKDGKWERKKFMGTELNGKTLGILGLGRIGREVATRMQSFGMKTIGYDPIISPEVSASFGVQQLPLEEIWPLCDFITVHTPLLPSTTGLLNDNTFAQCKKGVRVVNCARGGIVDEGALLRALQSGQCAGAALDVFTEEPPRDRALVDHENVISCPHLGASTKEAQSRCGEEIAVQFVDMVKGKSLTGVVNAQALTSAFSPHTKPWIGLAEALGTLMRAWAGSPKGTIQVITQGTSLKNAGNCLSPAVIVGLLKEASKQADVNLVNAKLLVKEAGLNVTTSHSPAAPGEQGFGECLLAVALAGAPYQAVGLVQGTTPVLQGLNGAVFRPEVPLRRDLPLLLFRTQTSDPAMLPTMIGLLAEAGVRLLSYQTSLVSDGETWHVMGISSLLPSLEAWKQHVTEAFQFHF

[2] = system: MDA-MB-468; test: Antiproliferative activity against human MDA-MB-468 cells expressing PHGDH assessed as reduction in cell viability measured for 72 hrs by CCK-8 assay; type: functional, cell-based; details: MDA-MB-468, 72 h
[3] = system: MCF-10A; test: Antiproliferative activity against human MCF-10A cells assessed as reduction in cell viability measured for 72 hrs by CCK-8 assay; type: functional, cell-based
[4] = Microsomal stability in human liver microsomes assessed as half life measured upto 60 mins by HPLC-MS/MS analysis; type: ADME, Microsome
[5] = Microsomal stability in rat liver microsomes assessed as half life measured upto 60 mins by HPLC-MS/MS analysis; type: ADME, Microsome
[6] = Microsomal stability in mouse liver microsomes assessed as half life measured upto 60 mins by HPLC-MS/MS analysis; type: ADME, Microsome
[7] = Microsomal stability in human liver microsomes assessed as intrinsic clearance measured upto 60 mins by HPLC-MS/MS analysis; type: ADME, Microsome; details: 1 h
[8] = Microsomal stability in rat liver microsomes assessed as intrinsic clearance measured upto 60 mins by HPLC-MS/MS analysis; type: ADME, Microsome; details: 1 h
[9] = Microsomal stability in mouse liver microsomes assessed as intrinsic clearance measured upto 60 mins by HPLC-MS/MS analysis; type: ADME, Microsome; details: 1 h
[10] = biological target: T1, D-3-phosphoglycerate dehydrogenase; test: Competitive inhibition of PHGDH (unknown origin) assessed as inhibition constant using NAD+ as substrate preincubated for 30 mins followed by substrate addition and measured after 5 mins by Lineweaver-Burk plot analysis
[11] = biological target: T1, D-3-phosphoglycerate dehydrogenase; test: Competitive inhibition of PHGDH (unknown origin) assessed as inhibition constant using 3-PG as substrate preincubated for 30 mins followed by substrate addition and measured after 5 mins by Lineweaver-Burk plot analysis
[12] = biological target: T1, D-3-phosphoglycerate dehydrogenase; test: Binding affinity to PHGDH (unknown origin) assessed as dissociation constant incubated for 60 mins by microscale thermophoresis analysis
[13] = biological target: T1, D-3-phosphoglycerate dehydrogenase; test: Binding affinity to his-tagged PHGDH ([…] residues) (unknown origin) assessed as dissociation constant by SPR analysis
[14] = biological target: T1, D-3-phosphoglycerate dehydrogenase; test: Inhibition of wild type PHGDH (unknown origin) preincubated for 30 mins followed by substrate addition and measured after 5 mins
[15] = biological target: D-3-phosphoglycerate dehydrogenase (Homo sapiens, UniProt O43175, D175A); test: Inhibition of PHGDH D175A mutant (unknown origin) preincubated for 30 mins followed by substrate addition and measured after 5 mins
[16] = system: BT-20; test: Antiproliferative activity against human BT-20 cells expressing PHGDH assessed as reduction in cell viability measured for 72 hrs by CCK-8 assay; type: functional, cell-based; details: BT-20, 72 h
[17] = system: PC-9; test: Antiproliferative activity against human PC-9 cells expressing PHGDH assessed as reduction in cell viability measured for 72 hrs by CCK-8 assay; type: functional, cell-based; details: PC-9, 72 h
[18] = system: NCI-H1975; test: Antiproliferative activity against human NCI-H1975 cells expressing PHGDH assessed as reduction in cell viability measured for 72 hrs by CCK-8 assay; type: functional, cell-based; details: NCI-H1975, 72 h
[19] = system: HCT-116; test: Antiproliferative activity against human HCT-116 cells expressing PHGDH assessed as reduction in cell viability measured for 72 hrs by CCK-8 assay; type: functional, cell-based; details: HCT-116, 72 h
[20] = system: HCC827; test: Antiproliferative activity against human HCC827 cells expressing PHGDH assessed as reduction in cell viability measured for 72 hrs by CCK-8 assay; type: functional, cell-based; details: HCC827, 72 h
[21] = system: NCI-H23; test: Antiproliferative activity against human NCI-H23 cells assessed as reduction in cell viability measured for 72 hrs by CCK-8 assay; type: functional, cell-based; details: NCI-H23, 72 h
[22] = system: PANC-1; test: Antiproliferative activity against human PANC-1 cells assessed as reduction in cell viability measured for 72 hrs by CCK-8 assay; type: functional, cell-based; details: PANC-1, 72 h
[23] = system: MDA-MB-231; test: Antiproliferative activity against human MDA-MB-231 cells assessed as reduction in cell viability measured for 72 hrs by CCK-8 assay; type: functional, cell-based; details: MDA-MB-231, 72 h
[24] = system: ZR-75-1; test: Antiproliferative activity against human ZR-75-1 cells assessed as reduction in cell viability measured for 72 hrs by CCK-8 assay; type: functional, cell-based; details: ZR-75-1, 72 h
[25] = system: MCF7; test: Antiproliferative activity against human MCF7 cells assessed as reduction in cell viability measured for 72 hrs by CCK-8 assay; type: functional, cell-based; details: MCF7, 72 h
[26] = AUClast in ICR mouse at 1 mg/kg, iv measured for 0.05 to 24 hrs by UPLC-MS/MS analysis; type: ADME, organism-based; set-up: time upper 24 hrs, dose 1 mg/kg, time lower 0.05 hrs, route iv; details: in vivo
[27] = AUClast in ICR mouse at 3 mg/kg, po measured for 0.25 to 24 hrs by UPLC-MS/MS analysis; type: ADME, organism-based; set-up: dose 3 mg/kg, time 0.25-24 hrs, route po; details: in vivo
[28] = Half life in ICR mouse at 1 mg/kg, iv measured for 0.05 to 24 hrs by UPLC-MS/MS analysis; type: ADME, organism-based; details: in vivo, time 0.05-24 hrs
[29] = Half life in ICR mouse at 3 mg/kg, po measured for 0.25 to 24 hrs by UPLC-MS/MS analysis; type: ADME, organism-based; details: in vivo, time 0.25-24 hrs
[30] = Tmax in ICR mouse at 3 mg/kg, po measured for 0.25 to 24 hrs by UPLC-MS/MS analysis; type: ADME, organism-based; details: in vivo, time 0.25-24 hrs
[31] = Observed clearance in ICR mouse at 1 mg/kg, iv measured for 0.05 to 24 hrs by UPLC-MS/MS analysis; type: ADME, organism-based; details: in vivo, time 0.05-24 hrs
[32] = Cmax in ICR mouse at 3 mg/kg, po measured for 0.25 to 24 hrs by UPLC-MS/MS analysis; type: ADME, organism-based; set-up: dose 3 mg/kg, time 0.25-24 hrs, route po; details: in vivo
[33] = Oral bioavailability in ICR mouse at 3 mg/kg measured for 0.25 to 24 hrs by UPLC-MS/MS analysis; type: ADME, organism-based; details: in vivo, time 0.25-24 hrs
[34] = Drug exposure in BALB/c nude mouse tumor at 50 mg/kg, ip measured for 0.5 to 4 hrs; type: ADME, organism-based; details: in vivo, time 0.5-4 hrs
[35] = Drug exposure in BALB/c nude mouse plasma at 25 mg/kg, ip measured for 0.5 to 4 hrs; type: ADME, organism-based; details: in vivo, time 0.5-4 hrs
[36] = system: PC-9; test: Antitumor activity against human PC-9 cells xenografted in BALB/c nude mouse assessed as tumor growth inhibition at 12.5 mg/kg, ip administered every day for 31 days by digital vernier caliper analysis; type: functional; details: time 31 day
[37] = system: PC-9; test: Antitumor activity against human PC-9 cells xenografted in BALB/c nude mouse assessed as tumor growth inhibition at 25 mg/kg, ip administered every day for 31 days by digital vernier caliper analysis; type: functional; details: time 31 day
[38] = Toxicity in BALB/c nude mouse xenografted with human PC-9 cells assessed as loss of body weight at 25 mg/kg, ip administered every day for 31 days; type: organism-based; details: in vivo, 744 h, time 31 day
[39] = Toxicity in BALB/c nude mouse xenografted with human PC-9 cells assessed as abnormalities in kidney at 25 mg/kg, ip administered every day for 31 days by H and E staining based assay; type: organism-based; details: in vivo, 744 h, time 31 day
[40] = Toxicity in BALB/c nude mouse xenografted with human PC-9 cells assessed as abnormalities in lung at 25 mg/kg, ip administered every day for 31 days by H and E staining based assay; type: organism-based; details: in vivo, 744 h, time 31 day
[41] = Toxicity in BALB/c nude mouse xenografted with human PC-9 cells assessed as abnormalities in liver at 25 mg/kg, ip administered every day for 31 days by H and E staining based assay; type: organism-based; details: in vivo, 744 h, time 31 day

Chain of D-3-phosphoglycerate dehydrogenase (Homo sapiens, UniProt O43175, D175A) (O43175 2-533 D175A limits assumed): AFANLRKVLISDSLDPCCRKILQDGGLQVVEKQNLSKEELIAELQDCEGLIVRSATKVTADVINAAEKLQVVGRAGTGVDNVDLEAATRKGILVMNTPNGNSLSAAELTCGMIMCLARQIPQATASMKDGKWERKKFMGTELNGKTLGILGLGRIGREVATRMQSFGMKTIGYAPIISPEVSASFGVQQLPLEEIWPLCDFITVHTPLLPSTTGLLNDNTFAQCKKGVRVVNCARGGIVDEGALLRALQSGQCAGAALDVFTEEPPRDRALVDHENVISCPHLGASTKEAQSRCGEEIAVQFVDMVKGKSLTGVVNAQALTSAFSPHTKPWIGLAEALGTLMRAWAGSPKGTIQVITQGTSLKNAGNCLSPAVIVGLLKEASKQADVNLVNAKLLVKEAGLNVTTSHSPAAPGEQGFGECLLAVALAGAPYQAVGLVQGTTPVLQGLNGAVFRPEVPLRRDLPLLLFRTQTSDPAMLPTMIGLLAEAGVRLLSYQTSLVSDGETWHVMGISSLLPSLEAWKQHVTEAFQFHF

CC(=O)c1cccc(NS(=O)(=O)c2ccc(C(=O)Nc3nc(-c4cccc(F)c4)cs3)cc2)c1
IC50 [1]: 2.8 µM
IC50 [2]: 5.3 µM
IC50 [3]: 52.9 µM
half-life [4]: 1.77 h
half-life [5]: 0.618 h
half-life [6]: 1.45 h
CLH [7]: 19.8 mL/min/g
CLH [8]: 56.6 mL/min/g
CLH [9]: 24.1 mL/min/g
Ki [10]: 15.2 µM
Ki [11]: 14.9 µM
Kd [12]: 2.33 µM
Kd [13]: 2.48 µM
IC50 [14]: 2.8 µM
IC50 [15]: > 50 µM
IC50 [16]: 5.3 µM
IC50 [17]: 3.5 µM
IC50 [18]: 6.2 µM
IC50 [19]: 9.6 µM
IC50 [20]: 21.6 µM
IC50 [21]: 28.6 µM
IC50 [22]: 36.6 µM
IC50 [23]: 37.1 µM
IC50 [24]: 38.3 µM
IC50 [25]: 39.2 µM
AUClast [26]: 38358 ng·mL·h
AUClast [27]: 94386 ng·mL·h
half-life [28]: 4.94 h
half-life [29]: 4.74 h
Tmax [30]: 3.33 h
clearance [31]: 0.48 mL/min/kg
Cmax [32]: 8840 ng/mL
bioavailability [33]: 82%
Drug uptake [34]: Active
concentration [35]: 30.8 µM
TGI [36]: 41.4%
TGI [37]: 68.9%
Activity [38]: Non-Toxic
Activity [39]: Non-Toxic
Activity [40]: Non-Toxic
Activity [41]: Non-Toxic
